Measured values reported in PubChem BioAssay (NCI).
Several values for one entry are separate records, joined by “and”; a condition that tells them apart may be missing. Equal entries are not always repeated.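 A five-concentration, 48-hour dose response in 96-well plates underlies each endpoint, interpolated linearly between surrounding concentrations. GI50 marks 50% less growth. Definition used: TGI = concentration required for complete inhibition of growth.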

Assays:
Assay in all cases: NCI tumour cell line growth inhibition, 48 h; in the data active = GI50 below about 0.43 µM; inactive = the rest
HCT-116 colon = tested on: HCT-116 colon
SW-620 colon = tested on: SW-620 colon
T-47D breast = tested on: T-47D breast
NCI-H522 lung = tested on: NCI-H522 lung
K-562 leukemia = tested on: K-562 leukemia
IGROV1 ovarian = tested on: IGROV1 ovarian
COLO 205 colon = tested on: COLO 205 colon
U251 CNS = tested on: U251 CNS
SN12C renal = tested on: SN12C renal
MCF7 breast = tested on: MCF7 breast
SR leukemia = tested on: SR leukemia
UACC-257 melanoma = tested on: UACC-257 melanoma
PC-3 prostate = tested on: PC-3 prostate
SK-MEL-5 melanoma = tested on: SK-MEL-5 melanoma
OVCAR-8 ovarian = tested on: OVCAR-8 ovarian
786-0 renal = tested on: 786-0 renal
SK-OV-3 ovarian = tested on: SK-OV-3 ovarian
KM12 colon = tested on: KM12 colon
HOP-62 NSCLC = tested on: HOP-62 NSCLC
LOX IMVI melanoma = tested on: LOX IMVI melanoma
MDA-MB-435 = tested on: MDA-MB-435
SNB-19 CNS = tested on: SNB-19 CNS
SK-MEL-2 melanoma = tested on: SK-MEL-2 melanoma
UACC-62 melanoma = tested on: UACC-62 melanoma
OVCAR-3 ovarian = tested on: OVCAR-3 ovarian
RPMI-8226 leukemia = tested on: RPMI-8226 leukemia
BT-549 breast = tested on: BT-549 breast
HL-60(TB) leukemia = tested on: HL-60(TB) leukemia
SF-268 CNS = tested on: SF-268 CNS
CCRF-CEM leukemia = tested on: CCRF-CEM leukemia
MOLT-4 leukemia = tested on: MOLT-4 leukemia
A549 NSCLC = tested on: A549 NSCLC
NCI-H23 lung = tested on: NCI-H23 lung
HCT-15 colon = tested on: HCT-15 colon
ACHN renal = tested on: ACHN renal
SNB-75 CNS = tested on: SNB-75 CNS
SF-295 CNS = tested on: SF-295 CNS
HS 578T breast = tested on: HS 578T breast
NCI/ADR-RES ovarian = tested on: NCI/ADR-RES ovarian
NCI-H460 lung = tested on: NCI-H460 lung
EKVX NSCLC = tested on: EKVX NSCLC
SF-539 CNS = tested on: SF-539 CNS
TK-10 renal = tested on: TK-10 renal
OVCAR-5 ovarian = tested on: OVCAR-5 ovarian
HCC-2998 colon = tested on: HCC-2998 colon
SK-MEL-28 melanoma = tested on: SK-MEL-28 melanoma
A498 renal = tested on: A498 renal
OVCAR-4 ovarian = tested on: OVCAR-4 ovarian

COC(=O)[C@@H](C)C[C@H](Cc1ccccc1)NC(=O)c1csc([C@@H](C[C@H](C(C)C)N(C)C(=O)[C@@H](NC(=O)[C@H]2CCCCN2C)c2ccc(F)cc2)OC(C)=O)n1
25 µM: TGI (UACC-62 melanoma)
> 100 µM: TGI (UACC-257 melanoma) | TGI (SNB-19 CNS) | TGI (SK-MEL-2 melanoma) | TGI (HS 578T breast) | TGI (SK-MEL-28 melanoma) | TGI (A498 renal)
0.0157 µM and 0.129 µM: TGI (OVCAR-3 ovarian)
25 µM and 40.4 µM: TGI (HOP-62 NSCLC)
22.2 µM and 19.5 µM: TGI (SN12C renal)
25 µM and 22 µM: TGI (RPMI-8226 leukemia)
25 µM and > 100 µM: TGI (HCT-116 colon) | TGI (SW-620 colon) | TGI (IGROV1 ovarian) | TGI (U251 CNS) | TGI (MCF7 breast) | TGI (OVCAR-8 ovarian) | TGI (SK-OV-3 ovarian) | TGI (KM12 colon) | TGI (SF-268 CNS) | TGI (CCRF-CEM leukemia) | TGI (A549 NSCLC) | TGI (NCI-H23 lung) | TGI (HCT-15 colon) | TGI (ACHN renal) | TGI (SF-295 CNS) | TGI (NCI/ADR-RES ovarian) | TGI (NCI-H460 lung) | TGI (EKVX NSCLC) | TGI (TK-10 renal) | TGI (OVCAR-5 ovarian) | TGI (HCC-2998 colon) | TGI (OVCAR-4 ovarian)
0.127 µM and 0.526 µM: TGI (COLO 205 colon)
25 µM and 20.8 µM: TGI (K-562 leukemia)
6.71 µM and 20.8 µM: TGI (LOX IMVI melanoma)
17.6 µM and 61.3 µM: TGI (SNB-75 CNS)
0.0662 µM and 0.615 µM: TGI (SF-539 CNS)
8.45 µM and 54.4 µM: TGI (MOLT-4 leukemia)
0.0853 µM and 0.661 µM: TGI (BT-549 breast)
6.23 µM and 42.5 µM: TGI (786-0 renal)
25 µM and 28.3 µM: TGI (PC-3 prostate)
6.84 µM and 17.6 µM: TGI (SR leukemia)
inactive: GI50 (NCI/ADR-RES ovarian) 1.81 µM and 3.8 µM
0.00514 µM and 0.0274 µM: TGI (MDA-MB-435)
active: GI50 (T-47D breast) 0.00826 µM | GI50 (NCI-H522 lung) 0.00259 µM and 0.0234 µM | GI50 (COLO 205 colon) 0.0113 µM and 0.0379 µM | GI50 (MCF7 breast) 0.00229 µM and 0.0025 µM | GI50 (SR leukemia) 0.00065 µM and 0.0025 µM | GI50 (SK-MEL-5 melanoma) 0.00535 µM and 0.0025 µM and 0.0101 µM | GI50 (MDA-MB-435) 0.00081 µM | GI50 (SNB-19 CNS) 0.0163 µM and 0.0441 µM | GI50 (SK-MEL-2 melanoma) 0.00682 µM and 0.0293 µM | GI50 (UACC-62 melanoma) 0.00331 µM and 0.0025 µM | GI50 (OVCAR-3 ovarian) 0.00309 µM and 0.0103 µM | GI50 (RPMI-8226 leukemia) 0.00504 µM and 0.0025 µM and 0.0207 µM | GI50 (HL-60(TB) leukemia) 0.00219 µM | GI50 (SF-539 CNS) 0.0215 µM and 0.0604 µM | GI50 (A498 renal) 0.0216 µM and 0.127 µM
